The supplement of paper PMC10307832

Legend:
Experiment in all cases: relative viability (nuclei count vs DMSO), 5 days (fraction); higher = more cells survive
[1] = compound: Cc1ccccc1C(C(=O)NC1CCCCC1)N(C(=O)Cn1ccnc1C)c1cccc(F)c1 [IDH-C35] + CC(=O)Nc1cccc(-n2c(=O)n(C3CC3)c(=O)c3c(Nc4ccc(I)cc4F)n(C)c(=O)c(C)c32)c1 [Trametinib] (partner 0.02 µM)
Summary of the method: (§1)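 Cells from lung cancer lines were seeded into 1536-well plates and, one day later, dosed by pin tool. Treatments were either a single drug or a fixed dose of an anchor drug with five library-drug doses (not always all listed) in √10 steps. After 5 days, nuclei were stained in a one-step fixation (final 0.05% Triton X-100, 1% formaldehyde, 1 ug/ml Hoechst) and counted on 4× images, and relative viability is the treated-to-vehicle nuclei ratio, as the median of duplicate plates.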

[2] = compound: CC1=C(C(=NN1)C)CC2=C(C3=C(S2)N(C(=O)N(C3=O)C)CC(C)C)C(=O)N4C[C@@H](CO4)O + CS(=O)(=O)N1CCN(Cc2cc3nc(-c4cccc5[nH]ncc45)nc(N4CCOCC4)c3s2)CC1 [Pictilisib] (partner 1 µM)
Summary of the method: as §1

[3] = compound: CC1=C(C(=NN1)C)CC2=C(C3=C(S2)N(C(=O)N(C3=O)C)CC(C)C)C(=O)N4C[C@@H](CO4)O + C[C@@H](Oc1cc(-c2cnn(C3CCNCC3)c2)cnc1N)c1c(Cl)ccc(F)c1Cl [Crizotinib] (partner 1 µM)
Summary of the method: as §1

[4] = compound: Cc1ccccc1C(C(=O)NC1CCCCC1)N(C(=O)Cn1ccnc1C)c1cccc(F)c1 [IDH-C35] + CC(C)C[C@H](NC(=O)[C@H](Cc1ccccc1)NC(=O)c1cnccn1)B(O)O [Bortezomib] (partner 0.002 µM)
Summary of the method: as §1

With UMC-11 the relative viability ([1]; first compound 0.08 µM) was 0.738, the relative viability ([1]; first compound 0.253 µM) was 0.761 and the relative viability ([1]; first compound 0.8 µM) was 0.617. The relative viability ([1]; first compound 2.53 µM) was 0.685, the relative viability ([1]; first compound 8 µM) was 0.772 and the relative viability ([2]; first compound 0.0025 µM) was 0.917. The relative viability ([2]; first compound 0.007906 µM) was 0.673, the relative viability ([2]; first compound 0.025 µM) was 0.785 and the relative viability ([2]; first compound 0.07906 µM) was 0.921. For the same cell line, the relative viability ([2]; first compound 0.25 µM) was 0.907, the relative viability ([3]; first compound 0.0025 µM) was 0.647 and the relative viability ([3]; first compound 0.007906 µM) was 0.346. It also gave a relative viability ([3]; first compound 0.025 µM) of 0.441, a relative viability ([3]; first compound 0.07906 µM) of 0.628 and a relative viability ([3]; first compound 0.25 µM) of 0.657. For the same cell line, the relative viability ([4]; first compound 0.08 µM) was 0.736, the relative viability ([4]; first compound 0.253 µM) was 0.737 and the relative viability ([4]; first compound 0.8 µM) was 0.487. It also gave a relative viability ([4]; first compound 2.53 µM) of 0.65 and a relative viability ([4]; first compound 8 µM) of 0.636.
